Measurements as given in publication PMC10960833, “1,2,3-triazole and chiral Schiff base hybrids as potential anticancer agents: DFT, molecular docking and ADME studies” (Scientific Reports, 2024).

Tests used:
[1] = AlamarBlue cytotoxicity assay, MRC5 normal cells; format: cell-based; details: human, MRC5 healthy lung cells, 24 h treatment, mean ± SD of three independent experiments
Protocol: (§1) PC3, A375, and MRC5 cell lines were purchased from ATCC and were cultured in Dulbecco’s Modified Eagle Media (DMEM) supplemented with 10% Fetal Bovine Serum (FBS) (Highveld biological), 1% gentamycin and 1% penicillin/streptomycin (Sigma, USA). Cells were maintained at 37 °C under 5% of carbon dioxide (CO2) and 95% relative humidity.
(§2) The growth inhibitory effect and cytotoxicity of the compounds were tested in triplicate against two cancer cell lines (PC3 and A375) and one healthy cell line (MRC5), respectively using Alamar Blue assay.
(§3) PC3, A375, and MRC5 cell lines were cultured in 96 well tissue culture plates. […] Cells were treated for 24 h. 10 µl of AlamarBlue (Thermo Fisher Scientific) was added to each well at 22 h after treatment and incubated for 2 h at 37 °C in the dark since AlamarBlue is light sensitive. Cell viability was measured using AlamarBlue and readings were obtained in terms of fluorescent values using a microplate reader (BioTek Synergy HT). Samples were exposed to an excitation wavelength of 530 nm and at the emission wavelength of 590 nm. Cell viability percentage was calculated using the formula below: Cellviability=absorbanceoftreatedcells-absorbanceofblank/absorbanceofuntreatedcells-absorbanceofblank×100%

[2] = system: PC3 (prostate) cancer cell lines; experiment: AlamarBlue cytotoxicity assay, PC3; format: cell-based; details: for IC50: Homo sapiens, PC-3; for Selectivity index (SI) PC3: ratio IC50 MRC5 / IC50 PC3
Protocol: (§4) PC3, A375, and MRC5 cell lines were purchased from ATCC and were cultured in Dulbecco’s Modified Eagle Media (DMEM) supplemented with 10% Fetal Bovine Serum (FBS) (Highveld biological), 1% gentamycin and 1% penicillin/streptomycin (Sigma, USA).
as §2
as §3, with “10 µl of AlamarBlue (Thermo Fisher Scientific) was added to each well at 22 h after treatment and incubated for 2 h at 37 °C in the dark since AlamarBlue is light sensitive.” left out

[3] = system: A375 (skin) cancer cell lines; experiment: AlamarBlue cytotoxicity assay, A375; format: cell-based; details: for Cytotoxicity (IC50) A375 / IC50: A375 cells, 24 h treatment, AlamarBlue, mean ± SD of three independent experiments; for IC50 / viability at 5 µg/mL / viability at 15 µg/mL / viability at 25 µg/mL / viability at 50 µg/mL / viability at 75 µg/mL / viability at 100 µg/mL: Homo sapiens; for IC50: A-375, 24 h; for viability at 5 µg/mL / viability at 15 µg/mL / viability at 25 µg/mL / viability at 50 µg/mL / viability at 75 µg/mL / viability at 100 µg/mL: A-375; for Selectivity index (SI) A375: ratio IC50 MRC5 / IC50 A375
Protocol: as §4, §2
as §3, with “10 µl of AlamarBlue (Thermo Fisher Scientific) was added to each well at 22 h after treatment and incubated for 2 h at 37 °C in the dark since AlamarBlue is light sensitive.” left out

[4] = system: MRC5 (healthy lung) cell lines; experiment: AlamarBlue cytotoxicity assay, MRC5 normal cells; format: cell-based; details: 24 h treatment, mean ± SD of three independent experiments
Protocol: as §1, §2, §3

[5] = PC3 cells, 24 h treatment, AlamarBlue, mean ± SD of three independent experiments

O=C(O)CCC(/N=C/c1ccccc1OCc1cn(-c2ccccc2)nn1)C(=O)O (stereo in doubt) [Compound 2, (s,e)-2-((2-((1-phenyl-1H-1,2,3-triazol-yl)methoxy)benzylidene)amino)pentanedioic acid]
IC50 at 24 h [1]: 85.3 ± 2.27 µg/mL
IC50 [2, 5]: 60.6 ± 1.42 µg/mL
Activity for the proliferation of the PC3 cancer cell lines (in words) [2]: moderate activity
viability at 5 µg/mL ([2]; PC3, 5 µg/mL): 90.3%
viability at 15 µg/mL ([2]; PC3, 15 µg/mL): 81%
viability at 25 µg/mL ([2]; PC3, 25 µg/mL): 71%
viability at 50 µg/mL ([2]; PC3, 50 µg/mL): 56%
viability at 75 µg/mL ([2]; PC3, 75 µg/mL): 36%
viability at 100 µg/mL ([2]; PC3, 100 µg/mL): 28%
Selectivity index (SI) PC3 [2]: 1.41
melting point: 146 to 148 °C
Cytotoxicity (IC50) A375 [3]: 36.12 ± 0.87 µg/mL
IC50 [3]: 36.1 to 40.4 µg/mL
viability at 5 µg/mL ([3]; A375, 5 µg/mL): 75.7%
viability at 15 µg/mL ([3]; A375, 15 µg/mL): 67%
viability at 25 µg/mL ([3]; A375, 25 µg/mL): 53.3%
viability at 50 µg/mL ([3]; A375, 50 µg/mL): 34%
viability at 75 µg/mL ([3]; A375, 75 µg/mL): 20.7%
viability at 100 µg/mL ([3]; A375, 100 µg/mL): 14%
Selectivity index (SI) A375 [3]: 2.36

O=Cc1ccccc1OCc1cn(-c2ccccc2)nn1 [Compound 1, 2-((1-phenyl-1H-1,2,3-triazol-4-yl)methoxy)benzaldehyde]
IC50 at 24 h [1]: 76.9 ± 1.87 µg/mL
IC50 [2, 5]: 75 ± 1.82 µg/mL
viability at 5 µg/mL ([2]; PC3, 5 µg/mL): 95%
viability at 15 µg/mL ([2]; PC3, 15 µg/mL): 89%
viability at 25 µg/mL ([2]; PC3, 25 µg/mL): 80%
viability at 50 µg/mL ([2]; PC3, 50 µg/mL): 63%
viability at 75 µg/mL ([2]; PC3, 75 µg/mL): 47%
viability at 100 µg/mL ([2]; PC3, 100 µg/mL): 38%
Selectivity index (SI) PC3 [2]: 1.02
melting point: 147 to 149 °C
Cytotoxicity (IC50) A375 [3]: 40.37 ± 1.03 µg/mL
IC50 [3]: 36.1 to 40.4 µg/mL
viability at 5 µg/mL ([3]; A375, 5 µg/mL): 79%
viability at 15 µg/mL ([3]; A375, 15 µg/mL): 69%
viability at 25 µg/mL ([3]; A375, 25 µg/mL): 55%
viability at 50 µg/mL ([3]; A375, 50 µg/mL): 37%
viability at 75 µg/mL ([3]; A375, 75 µg/mL): 24%
viability at 100 µg/mL ([3]; A375, 100 µg/mL): 18%
Selectivity index (SI) A375 [3]: 1.90

O=C([O-])[C@H](Cc1c[nH]c2ccccc12)/N=C/c1ccccc1OCc1cn(-c2ccccc2)nn1.[Na+] [Compound 3, sodium (s,e)-3-(1H-indol-3-yl)-2-((2-((1-phenyl-1H-1,2,3-triazol-4-yl)methoxy)benzylidene)amino)propanoate]
IC50 at 24 h [1]: 86.4 ± 2.64 µg/mL
IC50 [2, 5]: 40.5 ± 1.06 µg/mL
viability at 5 µg/mL ([2]; PC3, 5 µg/mL): 77%
viability at 15 µg/mL ([2]; PC3, 15 µg/mL): 65.3%
viability at 25 µg/mL ([2]; PC3, 25 µg/mL): 58%
viability at 50 µg/mL ([2]; PC3, 50 µg/mL): 44%
viability at 75 µg/mL ([2]; PC3, 75 µg/mL): 22%
viability at 100 µg/mL ([2]; PC3, 100 µg/mL): 16%
Selectivity index (SI) PC3 [2]: 2.13
melting point: 196 to 198 °C
IC50 [3]: 21.9 ± 0.52 µg/mL
viability at 5 µg/mL ([3]; A375, 5 µg/mL): 68%
viability at 15 µg/mL ([3]; A375, 15 µg/mL): 57.7%
viability at 25 µg/mL ([3]; A375, 25 µg/mL): 42%
viability at 50 µg/mL ([3]; A375, 50 µg/mL): 23%
viability at 75 µg/mL ([3]; A375, 75 µg/mL): 14%
viability at 100 µg/mL ([3]; A375, 100 µg/mL): 9%
Selectivity index (SI) A375 [3]: 3.95

O=C([O-])[C@H](Cc1ccc([O-])cc1)/N=C/c1ccccc1OCc1cn(-c2ccccc2)nn1.[Na+].[Na+] [Compound 4, sodium (s,e)-3-(4-oxidophenyl)-2-((2-((1-phenyl-1H-1,2,3-triazol-4-yl)methoxy)benzylidene)amino)propanoate]
IC50 at 24 h [1]: 88.4 ± 2.38 µg/mL
IC50 [2, 5]: 55.7 ± 1.28 µg/mL
Activity for the proliferation of the PC3 cancer cell lines (in words) [2]: moderate activity
viability at 5 µg/mL ([2]; PC3, 5 µg/mL): 84%
viability at 15 µg/mL ([2]; PC3, 15 µg/mL): 78%
viability at 25 µg/mL ([2]; PC3, 25 µg/mL): 70%
viability at 50 µg/mL ([2]; PC3, 50 µg/mL): 56%
viability at 75 µg/mL ([2]; PC3, 75 µg/mL): 34%
viability at 100 µg/mL ([2]; PC3, 100 µg/mL): 21.3%
Selectivity index (SI) PC3 [2]: 1.59
melting point: 148 to 150 °C
IC50 [3]: 24.8 ± 0.61 µg/mL
viability at 5 µg/mL ([3]; A375, 5 µg/mL): 68.7%
viability at 15 µg/mL ([3]; A375, 15 µg/mL): 59.7%
viability at 25 µg/mL ([3]; A375, 25 µg/mL): 45%
viability at 50 µg/mL ([3]; A375, 50 µg/mL): 25%
viability at 75 µg/mL ([3]; A375, 75 µg/mL): 16%
viability at 100 µg/mL ([3]; A375, 100 µg/mL): 11%
Selectivity index (SI) A375 [3]: 3.56

O=C(O)C(Cc1ccccc1)/N=C/c1ccccc1OCc1cn(-c2ccccc2)nn1 (stereo not drawn) [Compound 6, (e)-3-phenyl-2-((2-((1-phenyl-1H-1,2,3-triazol-4-yl)methoxy)benzylidene)amino)propanoic acid]
Cytotoxicity (IC50) MRC5 [4]: 93.07 ± 2.42 µg/mL
Cell viability (%) ([2]; PC3, 5 µg/mL): 79%
Cell viability (%) ([2]; PC3, 15 µg/mL): 68%
Cell viability (%) ([2]; PC3, 25 µg/mL): 60%
Cell viability (%) ([2]; PC3, 50 µg/mL): 49%
Cell viability (%) ([2]; PC3, 75 µg/mL): 26%
Cell viability (%) ([2]; PC3, 100 µg/mL): 18%
Cytotoxicity (IC50) PC3 [2, 5]: 45.00 ± 1.12 µg/mL
Selectivity index (SI) PC3 [2]: 2.07
Cell viability (%) ([3]; A375, 5 µg/mL): 68%
Cell viability (%) ([3]; A375, 15 µg/mL): 57.67%
Cell viability (%) ([3]; A375, 25 µg/mL): 45%
Cell viability (%) ([3]; A375, 50 µg/mL): 27%
Cell viability (%) ([3]; A375, 75 µg/mL): 16%
Cell viability (%) ([3]; A375, 100 µg/mL): 8%
Cytotoxicity (IC50) A375 [3]: 24.18 ± 0.57 µg/mL
Selectivity index (SI) A375 [3]: 3.85
